Measured values reported in US9770451B2, “Composition including ATM inhibitor for reducing cellular senescence and use of the composition” (Samsung Electronics Co., Ltd., priority 2014, dated 2017).

What was measured:
[1] = tested on: senescent fibroblasts (passage 37); experiment: Cell proliferation and formation of cell colonies (crystal violet staining); format: cell-based, human; conditions: among 0.1, 0.5 and 2 μM
Description: A human fibroblast cell line was inoculated into a Dulbecco's Modified Eagle's medium (DMEM) containing 10% fetal bovine serum (FBS), 100 units/ml of penicillin, and 100 μg/ml of streptomycin (wherein these two antibiotics were purchased from Gibro-BRL, Grand Island, N.Y.), and then, cultured in a 5% CO2 incubator at a temperature of 37° C. The fibroblast cell line (i.e., M11 strain) was a cell line derived from the foreskin of a child. When the cells were grown to about 85% confluency in a plate, the cells were subjected to subculture. The early subculture was carried out at a split ratio of 1:4, and the late subculture was carried out at a split ratio of 1:2. When the cell doubling time was 14 days, the cells were considered to be senescent fibroblasts (passages 35 to 37).
To determine the optimal concentration upon the treatment with an ATM-kinase inhibitor KU-60019 (SELLECKCHEM, S1570, salt), the senescent fibroblasts (passage 37) were inoculated into each well of a 6-well plate at a concentration of 2,000 cells/well, and then, KU-60019 was added to each well of the 6-well plate ([…]). In addition, as a negative control group, the cells were cultured under the same conditions as described above, except that a medium used herein contained a dimethyl sulfoxide (DMSO) (0.05 (v/v) %) medium. […]

[2] = tested on: C57BL/6J mice; experiment: Wound healing assay (full-thickness punch-biopsy wounds); format: in vivo, mouse; conditions: for closure difference between KU-60019-treated and DMSO-treated wounds: day 7; for mean wound closure: day 7, topical 5 μM in 30% Pluronic gel daily
Description: To further test whether ATMi can promote cutaneous wounding healing in young (3 months old) and old (19 months old) male mice (C57BL/6J mice), four full-thickness punch-biopsy wounds (8 mm in diameter) were created on the dorsal skin of mouse (5 mice/experimental group), drug at a concentration of 5 μM KU-60019 in 30% Pluronic gel (Pluronic F-127 Sigma, P2443-1 KG) 0.5 mL was applied to wounds every day, and then covered the wounds with Telfa sponges (Kendall Health Care, Mansfield, Mass., USA). All animal studies were reviewed and approved by the […] Animal Care and Use Committee of SKKU School of Medicine (SUSM). SUSM is an Association for Assessment and Accreditation of Laboratory Animal Care international accredited facility and abides by the Institute for Laboratory Animal Research guide. Wounds were photographed for 10 days. Immunohistochemistry analyses were performed on 5 μm paraffin embedded sections as described previously (Lin et. al., 2004. Developmental Biology 270, 474-486). Primary antibodies used for immunohistochemistry were mouse anti-α-smooth muscle actin (Sigma, F3777-2ML, 1:500), and mouse anti-PCNA (Santa Cruz Biotechnology, SC-56, 1:500). Secondary antibodies used for immunohistochemistry were EnVision™ Detection System (DAKO, K5007). Masson-Trichrome staining was performed according to the manufacturer's instructions (Polysciences Inc., Warrington Pa., USA).
To further test whether KU-60019 can promote cutaneous wounding healing in young (3 months old) and old (19 months old) mice, we created full-thickness punch-biopsy wounds 8 mm in diameter on the dorsal skin of 10 mice (5 mice/each group), applied to the wounds at a concentration of 5 μM KU-60019 in 30% Pluronic gel (Pluronic F-127 Sigma, P2443-1 KG), and then covered the wounds with Telfa sponges (Kendall Health Care, Mansfield, Mass., USA). Pluronic F-127 is a hydrogel widely used in pharmaceuticals as a drug delivery vehicle for a variety of soluble mediators, including antibodies, cytokines, and growth factors. […] Only 13.5% closure difference was shown between KU-60019-treated and DMSO-treated wounds. […] 20% closure difference was shown between KU-60019-treated and DMSO-treated wounds. […] KU-60019-treated wounds are capable of complete and efficient closure.

[3] = tested on: senescent fibroblasts (passage 37); experiment: Soft agar assay for abnormal (cancer-like) proliferation; format: cell-based, human; conditions: 0.5 μM, 4 weeks; 293T cells formed colonies
Description: In addition, to confirm whether the cells proliferated by the culture proliferate abnormally, for example, proliferate like cancer cells, a soft agar assay was carried out. First, the DMEM medium containing 10% FBS was mixed with a 1.6% agar medium at a ratio of 1:1, so as to prepare a medium containing 0.8% agar formulation to coat the bottom of each well of a 6-well plate. […] As a control group, a 293T cell line (ATCC® CRL-11268™) from human embryonic kidney was used. […] The same procedure applies similarly to the remaining images b, c, and d. In FIG. 3, HDF M11 p37 refers to a human dermal fibroblast M11 strain, which is a sub-cultured fibroblast (passage 37). In FIG. 3, KU-60019-KU-60019 refers to a process of continuously adding KU-60019 to a medium and culturing for 28 days; KU-60019-DMSO refers to a process of adding KU-60019 to a medium and culturing for 14 days, removing KU-60019, and then, culturing the cells in the absence of KU-60019 for another 14 days; DMSO-DMSO refers to a condition where KU-60019 is not added at all and the cells cultured for 28 days. The 293T cells were cultured under the same condition as DMSO-DMSO, and then, applied to the soft agar assay.

C[C@@H]1CN(CC(=O)Nc2ccc3c(c2)Cc2cccc(-c4cc(=O)cc(N5CCOCC5)o4)c2S3)C[C@H](C)O1 [KU-60019, 2-((2S,6R)-2,6-dimethylmorpholino)-N-(5-(6-morpholino-4-oxo-4H-pyran-2-yl)-9H-thioxanthen-2-yl)acetamide]
most effective concentration selected [1]: 0.5 µM | closure difference between KU-60019-treated and DMSO-treated wounds ([2]; old mouse (19 months old)): 20% | mean wound closure ([2]; old mouse (19 months old), control 49.4%): 69.4% | closure difference between KU-60019-treated and DMSO-treated wounds ([2]; young mouse (3 months old)): 13.5% | mean wound closure ([2]; young mouse (3 months old), control 74.1%): 87.6% | colony formation in soft agar [3]: colonies were not formed
